From US7410989B2, “Compounds, methods and compositions useful for the treatment of bovine viral diarrhea virus (BVDV) infection and hepatitis C virus (HCV) infection” (The University of North Carolina at Chapel Hill, priority 2001, dated 2008)

Test system: BVDV
Assay: Screening of antiviral compounds for anti-BVDV activity in MDBK cells; virus titre by immunoperoxidase monolayer assay
Type: cell-based, bovine viral diarrhea virus
Conditions: 12.5 μM compound, BVDV MOI 0.5, day 3; for Day 3 Media TCID50/mL / Day 3 Media % Control: culture medium; for Day 3 Cell Lysates % Control / Day 3 Media % Control: titre as % of no-antiviral control
Experimental: 2.0 cm^2 wells in a 24-well plate were seeded with 50 μl of medium from 12 ml of MEM-eq (minimum essential medium (MEM) with Earle's salts supplemented with 10% (v/v) equine serum, sodium bicarbonate (0.75 mg/ml), L-glutamine (0.29 mg/ml), penicillin G (100 U/ml), streptomycin (100 μg/ml), and amphotericin B (0.25 μg/ml)), which was derived by trypsinization of a confluent monolayer of Madin Darby Bovine Kidney (MDBK) cells in a 25 cm^2 flask. Cells were incubated at 38.5° C. with 5% CO2 for 24 hours. The average number of cells per well was determined and later used to calculate appropriate multiplicities of infection (MOI) of BVDV virus. […]
The inoculated cells incubated for one hour at 38.5° C. with 5% CO2 in humidified air. The medium was removed from the wells, and the cells washed one time with Ca^2+ and Mg^2+-free PBS comprising antiviral compound (12.5 μM) (cells in the wells not initially treated with antiviral compounds were washed without antiviral compound). […] Three days post-inoculation, medium was removed and stored at −20° C. for assay. […] Seven days post-inoculation, medium was removed and stored at −80° C. for serial dilution & assay.
The MDBK cells were resuspended in MEM-eq with no antiviral compound. Uterine tubal cells (UTC) were freeze-thawed and stored at −80° C. for analysis. UTC lysates were serially diluted with medium from Day 7 and assayed by immunoperoxidase for the presence of BVDV.
All samples were assayed for BVDV using the immunoperoxidase monolayer assay as described in A. Afshar et al., Can J Vet Res; 55:91-93 (1991). Samples were assayed in triplicate by adding 50 μL of MEM-eq containing approximately 2.5×10^3 MDBK cells to 50-μL of each sample supplemented with 50 μL of fresh MEM-eq in a 96-well culture plate. Plates were incubated for 72 h at 38.5° C. in a humidified atmosphere of 5% CO2 and air before the immunoperoxidase labeling technique was performed as follows:
After fixation, potentially infected cells were incubated with monoclonal antibodies D89 (M. L. Vickers et al., J Vet Diagn Invest 2, 300-302 (1990); Xue W et al., J Clin Microbiol 28, 1688-1693 […] specific for E2/gp53, a major envelope glycoprotein of BVDV (Xue W et al., Vet Microbiol 57, 105-118 (1997)) and 20.10.6 specific for NS3-p80, a conserved nonstructural protein (W. V. Corapi et al., Am J Vet Res 51, 1388-1394 (1990)). After washing with PBS and Tween 20 to remove unbound antibodies, peroxidase-conjugated rabbit anti-mouse IgG (Jackson Immuno Research Lab, West Grove, Pa.) was added. After a short incubation period, unbound peroxidase-conjugated antibody was removed by washing with PBS and Tween 20. Finally, the enzyme substrate, aminoethyl carbazole (Zymed Laboratories, Inc., South San Francisco, Calif.), which produces a reddish-brown color when oxidized by horseradish peroxidase, was added. Color change was visualized under light microscopy and compared to known positive and negative controls on each plate.
The tissue culture infective dose 50% (TCID50)/ml of the exposure aliquot was determined by the method of Reed and Muench (L. J. Reed and H. Muench, Am J Hygiene 27, 493-497 (1938). Results of viral detection assays were compared using a Pearson Chi-square test statistic (J. Sall and A. Lehman, JMP Start Statistics (Duxbury Press, Belmont, Calif. (1996), 195-211).

| Compound | Day 3 Cell Lysates TCID50/mL | Day 3 Media TCID50/mL | Day 3 Cell Lysates % Control [%] | Day 3 Media % Control [%] |
| --- | --- | --- | --- | --- |
| CC(C)NC(=N)c1ccc2[nH]c(-c3ccc(-c4ccc([N+](=O)[O-])cc4)o3)nc2c1 [DB 458, 2-[5 (6)-{N-isopropylamidino}-2-benzimidazoyl]-5-(4-nitrophenyl)furan] | Negative | Negative | – | – |
| CC(C)NC(=N)c1ccc2[nH]c(-c3ccc(-c4ccc(N)cc4)o3)nc2c1 [DB 459, 2-[5(6)-N-isopropylamidino-2-benzimidazoyl]-5-(4-aminophenyl)furan] | 1.00E+02 TCID50/mL | Negative | 0.0016 | – |
| COc1ccc(-c2ccc(-c3ccc(C4=NCCN4)cc3)o2)cc1 [DB 606] | Negative | Negative | – | – |
| Cc1cc(NC(=N)N)ccc1-c1ccc(-c2ccc(NC(=N)N)cc2C)o1 [DB 680] | Negative | Negative | – | – |
| N=C(N)Nc1ccc(-c2ccc(-c3ccc(NC(=N)N)cc3C(F)(F)F)o2)c(C(F)(F)F)c1 [DB 701] | 3.50E+04 TCID50/mL | 6.20E+03 TCID50/mL | 0.5645 | 0.1771 |
| N=C(N)Nc1ccc(-c2ccc(-c3cccc(NC(=N)N)c3)o2)cc1 [DB 705] | Negative | Negative | – | – |
| N=C(N)Nc1ccc(-c2ccc(-c3ccc(NC(=N)N)cc3Cl)o2)c(Cl)c1 [DB 708] | Negative | Negative | – | – |
| COc1cc(NC(=N)N)ccc1-c1ccc(-c2ccc(NC(=N)N)cc2OC)o1 [DB 711] | 2.00E+07 TCID50/mL | 2.40E+05 TCID50/mL | 322.5806 | 6.8571 |
| Cc1cc(NC(=N)N)ccc1-c1ccc(-c2ccc(NC(=N)N)cc2C)s1 [DB 752] | 6.20E+02 TCID50/mL | Negative | 0.01 | – |
